Assay: xn = mol fraction of the nth substance listed
Details: Liquid, Vibrating tube method

c1ccsc1 [thiophene] + O=C=O
Details | mass density [kg/m3]
342.91 K, 11019 kPa, x2 = 0.3818 | 967.88
342.91 K, 11995 kPa, x2 = 0.3818 | 969.76
342.91 K, 12980 kPa, x2 = 0.3818 | 971.64
342.91 K, 14033 kPa, x2 = 0.3818 | 973.6
342.91 K, 15024 kPa, x2 = 0.3818 | 975.41
342.91 K, 15980 kPa, x2 = 0.3818 | 977.13
342.91 K, 17026 kPa, x2 = 0.3818 | 978.96
342.91 K, 18022 kPa, x2 = 0.3818 | 980.7
342.91 K, 19019 kPa, x2 = 0.3818 | 982.41
343.15 K, 101 kPa, x2 = 0 | 1002.15
352.59 K, 4979 kPa, x2 = 0.199 | 974.07
352.59 K, 5990 kPa, x2 = 0.199 | 975.64
352.59 K, 7029 kPa, x2 = 0.199 | 977.28
352.59 K, 8024 kPa, x2 = 0.199 | 978.8
352.59 K, 9035 kPa, x2 = 0.199 | 980.29
352.59 K, 9983 kPa, x2 = 0.199 | 981.7
352.59 K, 11018 kPa, x2 = 0.199 | 983.2
352.59 K, 12014 kPa, x2 = 0.199 | 984.65
352.59 K, 13125 kPa, x2 = 0.199 | 986.24
352.59 K, 14000 kPa, x2 = 0.199 | 987.44
352.59 K, 15014 kPa, x2 = 0.199 | 988.92
352.59 K, 15934 kPa, x2 = 0.199 | 990.14
352.59 K, 17055 kPa, x2 = 0.199 | 991.66
352.59 K, 17954 kPa, x2 = 0.199 | 992.83
352.59 K, 19034 kPa, x2 = 0.199 | 994.28
352.59 K, 20005 kPa, x2 = 0.199 | 995.52
352.67 K, 1064 kPa, x2 = 0 | 992.39
352.67 K, 2003 kPa, x2 = 0 | 993.54
352.67 K, 3024 kPa, x2 = 0 | 994.79
352.67 K, 4003 kPa, x2 = 0 | 995.98
352.67 K, 5048 kPa, x2 = 0 | 997.22
352.67 K, 6013 kPa, x2 = 0 | 998.36
352.67 K, 7013 kPa, x2 = 0 | 999.51
352.67 K, 8050 kPa, x2 = 0 | 1000.73
352.67 K, 9018 kPa, x2 = 0 | 1001.82
352.67 K, 10003 kPa, x2 = 0 | 1002.93
352.67 K, 11003 kPa, x2 = 0 | 1004.07
352.67 K, 12004 kPa, x2 = 0 | 1005.16
352.67 K, 12998 kPa, x2 = 0 | 1006.25
352.67 K, 14005 kPa, x2 = 0 | 1007.34
352.67 K, 15038 kPa, x2 = 0 | 1008.46
352.67 K, 16006 kPa, x2 = 0 | 1009.49
352.67 K, 17027 kPa, x2 = 0 | 1010.58
352.67 K, 18001 kPa, x2 = 0 | 1011.6
352.67 K, 19031 kPa, x2 = 0 | 1012.65
352.67 K, 20017 kPa, x2 = 0 | 1013.74
352.85 K, 7014 kPa, x2 = 0.3818 | 941.65
352.85 K, 8124 kPa, x2 = 0.3818 | 944.24
352.85 K, 9071 kPa, x2 = 0.3818 | 946.38
352.85 K, 10020 kPa, x2 = 0.3818 | 948.55
352.85 K, 11000 kPa, x2 = 0.3818 | 950.66
352.85 K, 12010 kPa, x2 = 0.3818 | 952.84
352.85 K, 13005 kPa, x2 = 0.3818 | 954.93
352.85 K, 14021 kPa, x2 = 0.3818 | 956.99
352.85 K, 15021 kPa, x2 = 0.3818 | 958.98
352.85 K, 16002 kPa, x2 = 0.3818 | 960.92
352.85 K, 17007 kPa, x2 = 0.3818 | 962.89
352.85 K, 18002 kPa, x2 = 0.3818 | 964.77
352.85 K, 19018 kPa, x2 = 0.3818 | 966.66
353.15 K, 101 kPa, x2 = 0 | 989.76
362.38 K, 5067 kPa, x2 = 0.199 | 959.54
362.38 K, 6020 kPa, x2 = 0.199 | 961.18
362.38 K, 7006 kPa, x2 = 0.199 | 962.87
362.38 K, 8052 kPa, x2 = 0.199 | 964.61
362.38 K, 9004 kPa, x2 = 0.199 | 966.16
362.38 K, 9993 kPa, x2 = 0.199 | 967.76
362.38 K, 11055 kPa, x2 = 0.199 | 969.42
362.38 K, 12043 kPa, x2 = 0.199 | 970.93
362.38 K, 13005 kPa, x2 = 0.199 | 972.44
362.38 K, 14008 kPa, x2 = 0.199 | 973.98
362.38 K, 14980 kPa, x2 = 0.199 | 975.41
362.38 K, 16011 kPa, x2 = 0.199 | 976.94
362.38 K, 17005 kPa, x2 = 0.199 | 978.39
362.38 K, 18009 kPa, x2 = 0.199 | 979.82
362.38 K, 19011 kPa, x2 = 0.199 | 981.22
362.38 K, 20040 kPa, x2 = 0.199 | 982.7
362.51 K, 1007 kPa, x2 = 0 | 979.8
362.51 K, 2022 kPa, x2 = 0 | 981.13
362.51 K, 3029 kPa, x2 = 0 | 982.49
362.51 K, 4004 kPa, x2 = 0 | 983.74
362.51 K, 5006 kPa, x2 = 0 | 985.01
362.51 K, 6003 kPa, x2 = 0 | 986.27
362.51 K, 6999 kPa, x2 = 0 | 987.5
362.51 K, 7993 kPa, x2 = 0 | 988.73
362.51 K, 9007 kPa, x2 = 0 | 989.99
362.51 K, 9993 kPa, x2 = 0 | 991.16
362.51 K, 10997 kPa, x2 = 0 | 992.36
362.51 K, 11993 kPa, x2 = 0 | 993.56
362.51 K, 12838 kPa, x2 = 0 | 994.53
362.51 K, 14038 kPa, x2 = 0 | 995.94
362.51 K, 15044 kPa, x2 = 0 | 997.1
362.51 K, 16029 kPa, x2 = 0 | 998.18
362.51 K, 17006 kPa, x2 = 0 | 999.27
362.51 K, 18016 kPa, x2 = 0 | 1000.4
362.51 K, 18987 kPa, x2 = 0 | 1001.47
362.73 K, 8081 kPa, x2 = 0.3818 | 925.8
362.73 K, 9009 kPa, x2 = 0.3818 | 928.21
362.73 K, 10010 kPa, x2 = 0.3818 | 930.72
362.73 K, 11009 kPa, x2 = 0.3818 | 933.15
362.73 K, 11996 kPa, x2 = 0.3818 | 935.49
362.73 K, 13008 kPa, x2 = 0.3818 | 937.87
362.73 K, 14001 kPa, x2 = 0.3818 | 940.11
362.73 K, 15006 kPa, x2 = 0.3818 | 942.32
362.73 K, 16002 kPa, x2 = 0.3818 | 944.47
362.73 K, 17016 kPa, x2 = 0.3818 | 946.62
362.73 K, 18023 kPa, x2 = 0.3818 | 948.72
362.73 K, 19014 kPa, x2 = 0.3818 | 950.73
